Literature values as cited in paper PMC9663925, “Phase I pharmacokinetic study of an oral, small-molecule MEK inhibitor tunlametinib in patients with advanced NRAS mutant melanoma” (Frontiers in Pharmacology, 2022).
Where two headings read alike, the source gives them in different places.

## Cn1cnc2c(F)c(Nc3ccc(Br)cc3F)c(C(=O)NOCCO)cc21 [binimetinib]
Ref Bendell et al., 2017
  Tmax: 1.00 to 3.00 h

## O=C(c1ccc(F)c(F)c1Nc1ccc(I)cc1F)N1CC(O)([C@@H]2CCCCN2)C1 [cobimetinib]
Ref Rosen et al., 2016
  Tmax: 2.4 to 3 h

## Cn1cnc2c(F)c(Nc3ccc(Br)cc3Cl)c(C(=O)NOCCO)cc21 [selumetinib]
Ref Adjei et al., 2008
  Tmax: 1.0 to 3 h

## CC(=O)Nc1cccc(-n2c(=O)n(C3CC3)c(=O)c3c(Nc4ccc(I)cc4F)n(C)c(=O)c(C)c32)c1 [trametinib]
Ref Infante et al., 2012
  Tmax: 1.0 to 2.08 h
